Tests used:
[1] = tested on: ω-3 desaturase from Pythium irregulare; format: cell-based, S. cerevisiae; conditions: for desaturation by ω-3 desaturase from Pythium (in words): expression in yeast, exogenously supplied ω-6 fatty acids; for Conversion (%) / Product (%): yeast transformant pYES2-O3; for Conversion (%): conversion of ω-6 substrate into the corresponding ω-3 product; for Product (%): ω-3 product (ALA, SDA, ETA, EPA, DHA) of the fed substrate, 100 μM, 16° C., 4 days, GC
Experimental: (§1) The plasmids containing the full length O3 genes in the yeast expression vector pYES2.1/V5-His-TOPO were transformed into yeast S. cerevisiae. The positive transformants were selected for uracil auxotrophy on DOB-U agar plates. To characterize the ω-3 desaturase enzyme activity, positive clones and the control (yeast with pYES2.1 vector) were cultured overnight in DOB-U liquid medium at 28° C. and then grown in induction medium (DOB-U+Gal+Raf) containing 100 μM of various exogenously supplied fatty acid substrates at 16° C. for 4 days. The whole yeast cells expressing Pythium ω-3 genes were harvested by centrifugation and washed twice with distilled water. Then the yeast cells were directly transmethylated with methanolic HCl (3N) at 80° C. for 1 hour. The resultant methyl esters were extracted with hexane and analyzed by gas chromatography (GC). GC was carried out as described in WO 2005/083053.

[2] = tested on: control yeast pYES2 (yeast with pYES2.1 vector); assay: Production of ω-3 fatty acids from exogenous ω-6 fatty acids in the control yeast pYES2; format: cell-based, S. cerevisiae; conditions: ω-3 product (ALA, SDA, ETA, EPA, DHA) of the fed substrate, GC
Experimental: as §1

| Compound | desaturation by ω-3 desaturase from Pythium (in words) [1] | Conversion (%) [1] [%] | Product (%) [1] [%] | Product (%) [2] [%] |
| --- | --- | --- | --- | --- |
| CCCCC/C=C\C/C=C\CCCCCCCC(=O)O [LA, linoleic acid] | not able to desaturase | 0 | 0 | 0 |
| CCCCC/C=C\C/C=C\C/C=C\CCCCC(=O)O [GLA, γ-linolenic acid] | not able to desaturase | 0 | 0 | 0 |
| CC/C=C\C/C=C\C/C=C\C/C=C\C/C=C\CCCCCC(=O)O [DPA, docosapentaenoic acid] |  | 2.01 | 0.20 | 0.03 |
| CCCCC/C=C\C/C=C\C/C=C\CCCCCCC(=O)O [DGLA, dihomo-γ-linolenic acid] | desaturates | 9.65 | 1.90 | 0 |
